Results published in the NIST ThermoML archive (doi:10.1021/je8006138).

Columns and labels:
[1] = 101 kPa, Liquid; for viscosity: Capillary tube (Ostwald / Ubbelohde) method; for mass density: Pycnometric method
[2] = xn = mol fraction of the nth substance listed; settings: 101 kPa, Liquid; for viscosity: Capillary tube (Ostwald / Ubbelohde) method; for mass density: Pycnometric method

C1CCCCC1 [cyclohexane]
[1]
Settings	mass density [kg/m3]	viscosity [mPa·s]
293.15 K	778.6	0.984
298.15 K	773.9	0.903
303.15 K	769.2	0.83

CCCCCC [hexane] + CCCCC(CC)COP(=O)(OCC(CC)CCCC)OCC(CC)CCCC
[2], x2 = 0
Settings	mass density [kg/m3]	viscosity [mPa·s]
293.15 K	659.9	0.319
298.15 K	655.3	0.304
303.15 K	650.8	0.29

CCCCCC [hexane]
[1]
Settings	mass density [kg/m3]	viscosity [mPa·s]
293.15 K	659.9	0.319
298.15 K	655.3	0.304
303.15 K	650.8	0.29

CCCCC(CC)COP(=O)(OCC(CC)CCCC)OCC(CC)CCCC (stereo not given) [tris(2-ethylhexyl) phosphate]
[1]
Settings	mass density [kg/m3]	viscosity [mPa·s]
293.15 K	923.8	14.09
298.15 K	920.1	11.62
303.15 K	916.4	9.708

CCCCC(CC)COP(=O)(OCC(CC)CCCC)OCC(CC)CCCC (stereo not given) [tris(2-ethylhexyl) phosphate] + C1CCCCC1
[2]
Settings	mass density, 293.15 K [kg/m3]	mass density, 298.15 K [kg/m3]	mass density, 303.15 K [kg/m3]	viscosity, 293.15 K [mPa·s]	viscosity, 298.15 K [mPa·s]	viscosity, 303.15 K [mPa·s]
x1 = 0.0997	823.7	819.4	815.1	1.709	1.544	1.404
x1 = 0.1995	852.5	848.3	844.2	2.71	2.423	2.176
x1 = 0.2978	871.1	867.1	863.1	3.894	3.415	3.025
x1 = 0.4007	885.8	881.8	877.9	5.246	4.532	3.948
x1 = 0.4965	895.8	892	888	6.629	5.665	4.896
x1 = 0.582	902.8	899	895.1	7.908	6.682	5.732
x1 = 0.6955	910.4	906.6	902.8	9.64	8.09	6.862
x1 = 0.7732	914.6	910.8	907	10.8	9.002	7.619
x1 = 0.8997	920.2	916.5	912.6	12.64	10.5	8.806
x1 = 1	923.8	920.1	916.4	14.09	11.62	9.708

C1CCCCC1 [cyclohexane] + CCCCC(CC)COP(=O)(OCC(CC)CCCC)OCC(CC)CCCC
[2], x2 = 0
Settings	mass density [kg/m3]	viscosity [mPa·s]
293.15 K	778.6	0.984
298.15 K	773.9	0.903
303.15 K	769.2	0.83

CCCCC(CC)COP(=O)(OCC(CC)CCCC)OCC(CC)CCCC (stereo not given) [tris(2-ethylhexyl) phosphate] + CCCCCC
[2]
Settings	mass density, 293.15 K [kg/m3]	mass density, 298.15 K [kg/m3]	mass density, 303.15 K [kg/m3]	viscosity, 293.15 K [mPa·s]	viscosity, 298.15 K [mPa·s]	viscosity, 303.15 K [mPa·s]
x1 = 0.1027	739.4	735.2	730.9	0.638	0.594	0.56
x1 = 0.1999	789.2	785	780.9	1.103	1.019	0.948
x1 = 0.2976	823.2	819	815	1.754	1.608	1.475
x1 = 0.4047	851.5	847.5	843.5	2.753	2.485	2.246
x1 = 0.5005	869.7	865.8	861.9	3.881	3.438	3.053
x1 = 0.5889	883.6	879.6	875.8	5.1	4.479	3.923
x1 = 0.7133	898.9	895.3	891.4	7.34	6.247	5.405
x1 = 0.8032	908.3	904.5	900.8	9.121	7.73	6.583
x1 = 0.8907	916.3	912.6	908.9	11.18	9.353	7.935
x1 = 1	923.8	920.1	916.4	14.09	11.62	9.708
